Molecular target: T1, IGF-1R (Homo sapiens, UniProt P08069)
T1 construct: expressed in transfected cells
Assay: Example B-1: IGF-1R Assay (PC3 cells stimulated with IGF1, AlphaLISA on cell lysates)
Format: cell-based
Settings: compound two hours, IGF1 200 ng/mL for 30 min, read-out: IC50, Biological Activity against IGF-1R (Table B1)
In short: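 PC3 cells serum-starved 2 h, treated 2 h with 3-fold serially diluted compound, then stimulated 30 min with IGF1 (200 ng/mL final). Lysates analysed by AlphaLISA; % inhibition calculated relative to vehicle and EC80 controls, IC50 derived.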

T1 sequence (P08069 31-1367): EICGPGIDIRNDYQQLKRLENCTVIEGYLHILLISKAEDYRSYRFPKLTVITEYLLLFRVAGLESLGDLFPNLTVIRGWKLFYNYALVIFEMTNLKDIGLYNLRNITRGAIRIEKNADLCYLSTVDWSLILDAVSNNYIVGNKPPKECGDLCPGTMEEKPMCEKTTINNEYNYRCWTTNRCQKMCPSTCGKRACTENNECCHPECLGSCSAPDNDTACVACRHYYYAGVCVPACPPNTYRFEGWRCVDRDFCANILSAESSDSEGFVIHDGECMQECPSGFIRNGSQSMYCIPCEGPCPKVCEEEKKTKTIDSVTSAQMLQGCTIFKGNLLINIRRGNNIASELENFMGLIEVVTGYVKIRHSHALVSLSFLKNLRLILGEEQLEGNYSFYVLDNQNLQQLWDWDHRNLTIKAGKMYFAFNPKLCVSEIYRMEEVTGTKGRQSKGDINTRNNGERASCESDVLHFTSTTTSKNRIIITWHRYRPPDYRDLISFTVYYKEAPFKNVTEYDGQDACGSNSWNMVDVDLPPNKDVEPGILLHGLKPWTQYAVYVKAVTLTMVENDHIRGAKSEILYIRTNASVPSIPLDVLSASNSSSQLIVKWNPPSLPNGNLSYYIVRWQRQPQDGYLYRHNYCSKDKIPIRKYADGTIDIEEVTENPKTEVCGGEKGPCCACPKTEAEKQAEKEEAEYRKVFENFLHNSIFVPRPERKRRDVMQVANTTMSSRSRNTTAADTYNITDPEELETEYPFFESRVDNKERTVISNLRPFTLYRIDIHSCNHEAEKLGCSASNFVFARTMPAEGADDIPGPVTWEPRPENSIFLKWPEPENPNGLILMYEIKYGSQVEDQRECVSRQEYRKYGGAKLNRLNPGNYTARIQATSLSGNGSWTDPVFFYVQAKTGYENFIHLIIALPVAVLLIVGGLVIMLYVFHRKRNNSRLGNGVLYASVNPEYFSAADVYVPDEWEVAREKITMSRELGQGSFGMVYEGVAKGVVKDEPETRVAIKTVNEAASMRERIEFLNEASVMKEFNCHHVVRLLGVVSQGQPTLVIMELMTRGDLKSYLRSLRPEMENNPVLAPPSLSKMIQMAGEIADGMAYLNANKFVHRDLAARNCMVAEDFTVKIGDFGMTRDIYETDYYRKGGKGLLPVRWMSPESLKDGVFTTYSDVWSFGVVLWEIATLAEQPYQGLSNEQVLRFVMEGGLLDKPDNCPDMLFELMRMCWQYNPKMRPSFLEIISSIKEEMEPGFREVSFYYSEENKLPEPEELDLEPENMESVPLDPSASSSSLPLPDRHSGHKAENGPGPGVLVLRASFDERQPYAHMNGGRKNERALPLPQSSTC

Row | IC50 [nM] | SMILES
1 | ≤ 500 | CC(C)Nc1cc(CN2C(=O)N(c3ccc(S(F)(F)(F)(F)F)cc3)C(=O)C2(C)C)ccn1 [Compound 178, 1-((2-(isopropylamino)pyridin-4-yl)methyl)-5,5-dimethyl-3-(4-(pentafluoro-16-sulfanyl)phenyl)imidazolidine-2,4-dione]
2 | ≤ 500 | CC1(C)C(=O)N(c2ccc(CC(F)(F)F)cc2)C(=O)N1Cc1ccnc(N)c1 [Compound 94, 1-((2-aminopyridin-4-yl)methyl)-5,5-dimethyl-3-(4-(2,2,2-trifluoroethyl)phenyl)imidazolidine-2,4-dione]
3 | ≤ 500 | CC1(C)C(=O)N(c2ccc(SC(F)(F)F)cc2)C(=O)N1Cc1ncnc2[nH]ccc12 [Compound 3, 1-((7H-pyrrolo[2,3-d]pyrimidin-4-yl)methyl)-5,5-dimethyl-3-(4-((trifluoromethyl)thio)phenyl)imidazolidine-2,4-dione]
4 | ≤ 500 | COC[C@@H](C)Nc1cc(CN2C(=O)N(c3ccc(C(C)(C)C)cc3)C(=O)C2(C)C)ccn1 [Compound 268, (R)-3-(4-(tert-butyl)phenyl)-1-((2-((1-methoxypropan-2-yl)amino)pyridin-4-yl)methyl)-5,5-dimethylimidazolidine-2,4-dione]
5 | ≤ 500 | CC1(C)C(=O)N(c2ccc(SC(F)(F)F)cc2)C(=O)N1Cc1ccnc(NCC(F)F)c1 [Compound 315, 1-((2-((2,2-difluoroethyl)amino)pyridin-4-yl)methyl)-5,5-dimethyl-3-(4-((trifluoromethyl)thio)phenyl) imidazolidine-2,4-dione]
6 | 500 to 2000 | CC1(C)C(=O)N(c2ccc(C3(CO)CC3)cc2)C(=O)N1Cc1ccnc(N)c1 [Compound 100, 1-((2-aminopyridin-4-yl)methyl)-3-(4-(1-(hydroxymethyl)cyclopropyl)phenyl)-5,5-dimethylimidazolidine-2,4-dione]
7 | ≤ 500 | CC1(C)C(=O)N(c2ccc(SC(F)(F)F)cc2)C(=O)N1Cc1ccnc(Nc2ncc[nH]2)c1 [Compound 352, 1-((2-((1H-imidazol-2-yl)amino)pyridin-4-yl)methyl)-5,5-dimethyl-3-(4-((trifluoromethyl)thio)phenyl) imidazolidine-2,4-dione]
8 | ≤ 500 | CC1(C)C(=O)N(c2ccc(SC(F)(F)F)cc2)C(=O)N1Cc1ccnc2[nH]cnc12 [Compound 2, 1-((3H-imidazo[4,5-b]pyridin-7-yl)methyl)-5,5-dimethyl-3-(4-((trifluoromethyl)thio)phenyl)imidazolidine-2,4-dione]
9 | > 10000 | CC1(C)C(=O)N(c2ccc(SC(F)(F)F)cc2)C(=O)N1Cc1ccnc(NC2COC2)c1 [Compound 314, 5,5-dimethyl-1-((2-(oxetan-3-ylamino)pyridin-4-yl)methyl)-3-(4-((trifluoromethyl)thio)phenyl) imidazolidine-2,4-dione]
10 | ≤ 500 | CC1(C)C(=O)N(c2ccc(C3(C(F)(F)F)CC3)cc2)C(=O)N1Cc1ccnc(N)c1 [Compound 83, 1-((2-aminopyridin-4-yl)methyl)-5,5-dimethyl-3-(4-(1-(trifluoromethyl)cyclopropyl)phenyl)imidazolidine-2,4-dione]
11 | ≤ 500 | CC(C)Nc1cc(CN2C(=O)N(c3ccc(C4(C(F)(F)F)CCC4)cc3)C(=O)C2(C)C)ccn1 [Compound 115, 1-((2-(isopropylamino)pyridin-4-yl)methyl)-5,5-dimethyl-3-(4-(1-(trifluoromethyl)cyclobutyl)phenyl) imidazolidine-2,4-dione]
12 | 500 to 2000 | Nc1cc(CN2C(=O)N(c3ccc(SC(F)(F)F)cc3)C(=O)C23CCC3)ccn1 [Compound 292, 5-((2-aminopyridin-4-yl)methyl)-7-(4-((trifluoromethyl)thio)phenyl)-5,7-diazaspiro[3.4]octane-6,8-dione]
13 | 500 to 2000 | Nc1cc(CN2C(=O)N(c3ccc(SC(F)(F)F)cc3)C(=O)C23CCCC3)ccn1 [Compound 291, ((2-aminopyridin-4-yl)methyl)-3-(4-((trifluoromethyl)thio)phenyl)-1,3-diazaspiro[4.4]nonane-2,4-dione]
14 | ≤ 500 | CCC(C)Nc1cc(CN2C(=O)N(c3ccc(SC(F)(F)F)cc3)C(=O)C2(C)C)ccn1 (stereo not shown) [Compound 381, 1-((2-(sec-butylamino)pyridin-4-yl)methyl)-5,5-dimethyl-3-(4-((trifluoromethyl)thio)phenyl)imidazolidine-2,4-dione]

Further lines, the compound ahead of its results:

Row | SMILES | IC50 [nM]
15 | COc1cccc(NC(=O)Nc2cc(CN3C(=O)N(c4ccc(SC(F)(F)F)cc4)C(=O)C3(C)C)ccn2)c1 [Compound 364, 1-(4-((5,5-dimethyl-2,4-dioxo-3-(4-((trifluoromethyl)thio)phenyl)imidazolidin-1-yl)methyl)pyridin-2-yl)-3-(3-methoxyphenyl)urea] | ≤ 500
16 | CN1CC(Oc2ccc(Nc3cc(CN4C(=O)N(c5ccc(SC(F)(F)F)cc5)C(=O)C4(C)C)ccn3)cc2)C1 [Compound 349, 5,5-dimethyl-1-((2-((4-((1-methylazetidin-3-yl)oxy)phenyl)amino)pyridin-4-yl)methyl)-3-(4-((trifluoromethyl)thio)phenyl) imidazolidine-2,4-dione] | ≤ 500
17 | Cc1ccccc1NC(=O)Nc1cc(CN2C(=O)N(c3ccc(SC(F)(F)F)cc3)C(=O)C2(C)C)ccn1 [Compound 366, 1-(4-((5,5-dimethyl-2,4-dioxo-3-(4-((trifluoromethyl)thio)phenyl)imidazolidin-1-yl)methyl)pyridin-2-yl)-3-(o-tolyl)urea] | ≤ 500
18 | CN1CC(Nc2cc(CN3C(=O)N(c4ccc(C(C)(C)C)cc4)C(=O)C3(C)C)ccn2)C1 [Compound 345, 3-(4-(tert-butyl)phenyl)-5,5-dimethyl-1-((2-((1-methylazetidin-3-yl)amino)pyridin-4-yl)methyl)imidazolidine-2,4-dione] | 500 to 2000
19 | Cc1c[nH]c2ncc(CN3C(=O)N(c4ccc(SC(F)(F)F)cc4)C(=O)C3(C)C)cc12 [Compound 406, 5,5-dimethyl-1-((3-methyl-1H-pyrrolo[2,3-b]pyridin-5-yl)methyl)-3-(4-((trifluoromethyl)thio)phenyl) imidazolidine-2,4-dione] | 2000 to 10000
20 | CC(=O)Nc1cc(CN2C(=O)N(c3ccc(SC(F)(F)F)cc3)C(=O)C2(C)C)ncn1 [Compound 365, N-(6-((5,5-dimethyl-2,4-dioxo-3-(4-((trifluoromethyl)thio)phenyl)imidazolidin-1-yl)methyl)pyrimidin-4-yl)acetamide] | ≤ 500
21 | Cc1cc2c(CN3C(=O)N(c4ccc(C5(C(F)(F)F)CC5)cc4)C(=O)C3(C)C)ccnc2[nH]1 [Compound 9, 5,5-dimethyl-1-((2-methyl-1H-pyrrolo[2,3-b]pyridin-4-yl)methyl)-3-(4-(1-(trifluoromethyl)cyclopropyl)phenyl) imidazolidine-2,4-dione] | ≤ 500
22 | CC(C)Nc1cc(CN2C(=O)N(c3ccc(SC(F)(F)F)cc3)C(=O)C2(C)C)cc(F)n1 [Compound 383, 1-((2-fluoro-6-(isopropylamino)pyridin-4-yl)methyl)-5,5-dimethyl-3-(4-((trifluoromethyl)thio)phenyl) imidazolidine-2,4-dione] | 2000 to 10000
23 | CC1(Nc2cc(CN3C(=O)N(c4ccc(C(C)(C)C)cc4)C(=O)C3(C)C)ccn2)CC1 [Compound 273, 3-(4-(tert-butyl)phenyl)-5,5-dimethyl-1-((2-((1-methylcyclopropyl)amino)pyridin-4-yl)methyl) imidazolidine-2,4-dione] | ≤ 500
24 | CCc1cn(C)c2cc(N3C(=O)N(Cc4ccnc(NC(C)C)c4)C(C)(C)C3=O)ccc12 [Compound 257, 3-(3-ethyl-1-methyl-1H-indol-6-yl)-1-((2-(isopropylamino)pyridin-4-yl)methyl)-5,5-dimethylimidazolidine-2,4-dione] | 500 to 2000
25 | Cc1ccc(NC(=O)Nc2cc(CN3C(=O)N(c4ccc(SC(F)(F)F)cc4)C(=O)C3(C)C)ccn2)cc1 [Compound 371, 1-(4-((5,5-dimethyl-2,4-dioxo-3-(4-((trifluoromethyl)thio)phenyl)imidazolidin-1-yl)methyl)pyridin-2-yl)-3-(p-tolyl)urea] | ≤ 500
26 | CC(C)Nc1cc(CN2C(=O)N(c3ccc(SC(F)(F)F)cc3)C(=O)C2(C)C)cnn1 [Compound 386, 1-((6-(isopropylamino)pyridazin-4-yl)methyl)-5,5-dimethyl-3-(4-((trifluoromethyl)thio)phenyl) imidazolidine-2,4-dione] | 2000 to 10000
27 | CC(C)Nc1cc(CN2C(=O)N(c3ccc([C@H]4C[C@@H]4F)cc3)C(=O)C2(C)C)ccn1 [Compound 96, 3-(4-((1R,2S)-2-fluorocyclopropyl)phenyl)-1-((2-(isopropylamino)pyridin-4-yl)methyl)-5,5-dimethylimidazolidine-2,4-dione] | 500 to 2000
28 | CC1(C)C(=O)N(c2ccc(SC(F)(F)F)cc2)C(=O)N1Cc1ccnc(NC(=O)Nc2ccc(Cl)cc2)c1 [Compound 377, 1-(4-chlorophenyl)-3-(4-((5,5-dimethyl-2,4-dioxo-3-(4-((trifluoromethyl)thio)phenyl)imidazolidin-1-yl)methyl)pyridin-2-yl)urea] | 500 to 2000
29 | CC(C)Nc1cc(CN2C(=O)N(c3ccc(SC(F)(F)F)cc3)C(=O)C2(C)C)ncn1 [Compound 379, 1-((6-(isopropylamino)pyrimidin-4-yl)methyl)-5,5-dimethyl-3-(4-((trifluoromethyl)thio)phenyl) imidazolidine-2,4-dione] | 500 to 2000
30 | Nc1cc(CN2C(=O)N(c3ccc(SC(F)(F)F)cc3)C(=O)[C@@H]2Cc2ccccc2)ccn1 [Compound 289, (S)-1-((2-aminopyridin-4-yl)methyl)-5-benzyl-3-(4-((trifluoromethyl)thio)phenyl)imidazolidine-2,4-dione] | 500 to 2000
31 | CC1(C)C(=O)N(c2ccc(SC(F)(F)F)cc2)C(=O)N1Cc1ccnc2[nH]cc(Cl)c12 [Compound 5, 1-((3-chloro-1H-pyrrolo[2,3-b]pyridin-4-yl)methyl)-5,5-dimethyl-3-(4-((trifluoromethyl)thio)phenyl)imidazolidine-2,4-dione] | ≤ 500
